Numbering of substitutions follows the chain as printed. Where a SMILES comes first, the peptide text is derived from it.
Key:
[1] = biological target: T1, hTAS1R2 + hTAS1R3 L782A^6.55 (Homo sapiens, UniProt Q7RTX0+Q8TE23, L782A); assay: Calcium response (FLIPR), hTAS1R3 mutant coexpressed with hTAS1R2; assay type: cell-based; conditions: variant L782A^6.55; for EC50: (>) EC50 not calculable because saturation is not reached; for Emax: read-out: maximal signal (% of wt)
T1 construct: expressed in transfected cells; host or cells: HEK293T cells stably expressing G16Gust44
T1 sequence (Q8TE23 20-839): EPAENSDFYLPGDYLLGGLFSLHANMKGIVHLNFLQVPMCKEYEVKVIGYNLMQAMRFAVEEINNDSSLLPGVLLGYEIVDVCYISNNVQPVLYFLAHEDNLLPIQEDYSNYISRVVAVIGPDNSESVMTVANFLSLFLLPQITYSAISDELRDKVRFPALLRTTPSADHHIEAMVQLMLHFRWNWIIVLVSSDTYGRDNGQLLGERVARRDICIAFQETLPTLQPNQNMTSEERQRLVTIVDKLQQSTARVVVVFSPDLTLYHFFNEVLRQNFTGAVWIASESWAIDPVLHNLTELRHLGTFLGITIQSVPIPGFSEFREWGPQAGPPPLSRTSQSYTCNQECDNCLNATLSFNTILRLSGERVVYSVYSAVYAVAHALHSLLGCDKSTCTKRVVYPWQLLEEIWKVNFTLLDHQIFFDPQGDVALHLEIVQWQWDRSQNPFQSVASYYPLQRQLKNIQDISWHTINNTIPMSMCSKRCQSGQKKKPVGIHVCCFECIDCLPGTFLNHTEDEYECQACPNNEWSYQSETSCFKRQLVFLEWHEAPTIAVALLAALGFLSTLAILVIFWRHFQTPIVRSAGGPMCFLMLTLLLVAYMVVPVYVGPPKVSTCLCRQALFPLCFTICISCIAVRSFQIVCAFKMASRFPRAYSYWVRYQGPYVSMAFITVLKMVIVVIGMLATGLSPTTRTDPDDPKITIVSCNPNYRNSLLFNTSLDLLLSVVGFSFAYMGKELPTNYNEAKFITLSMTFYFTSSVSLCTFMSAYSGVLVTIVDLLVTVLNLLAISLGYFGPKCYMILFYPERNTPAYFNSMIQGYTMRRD
T1 sequence (Q7RTX0 21-852 L782A): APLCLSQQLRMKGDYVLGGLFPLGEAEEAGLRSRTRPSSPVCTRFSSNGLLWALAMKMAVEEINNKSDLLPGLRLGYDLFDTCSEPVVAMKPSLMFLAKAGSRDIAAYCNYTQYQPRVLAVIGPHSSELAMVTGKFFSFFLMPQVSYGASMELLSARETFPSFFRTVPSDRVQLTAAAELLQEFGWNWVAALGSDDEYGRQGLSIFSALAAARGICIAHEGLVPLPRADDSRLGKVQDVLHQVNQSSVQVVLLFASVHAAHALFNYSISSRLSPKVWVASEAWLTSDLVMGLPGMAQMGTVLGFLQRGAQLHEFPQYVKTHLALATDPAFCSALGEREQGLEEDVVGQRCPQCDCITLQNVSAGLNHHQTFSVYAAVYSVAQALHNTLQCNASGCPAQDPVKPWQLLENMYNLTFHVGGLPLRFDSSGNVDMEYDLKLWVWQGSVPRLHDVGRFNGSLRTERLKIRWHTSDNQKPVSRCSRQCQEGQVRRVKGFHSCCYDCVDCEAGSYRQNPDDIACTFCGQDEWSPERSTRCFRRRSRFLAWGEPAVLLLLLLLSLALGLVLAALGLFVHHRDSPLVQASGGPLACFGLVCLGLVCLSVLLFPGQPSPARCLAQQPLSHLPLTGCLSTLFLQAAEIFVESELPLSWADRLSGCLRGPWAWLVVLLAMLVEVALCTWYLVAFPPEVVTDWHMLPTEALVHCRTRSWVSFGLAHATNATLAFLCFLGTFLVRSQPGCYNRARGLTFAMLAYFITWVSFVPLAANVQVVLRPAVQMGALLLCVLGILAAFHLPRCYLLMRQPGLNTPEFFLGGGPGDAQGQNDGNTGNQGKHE
Summary of the method: (§1)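 Each mutant receptor pair was expressed transiently in G16Gust44-expressing HEK293T cells; stimuli dissolved in C1 solution triggered calcium responses, recorded by fluorometric imaging and scaled to baseline fluorescence (ΔF/F) after mock correction, from at least three experiments run in duplicate.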

[2] = biological target: T2, hTAS1R2 + hTAS1R3 S640A^3.32 (Homo sapiens, UniProt Q7RTX0+Q8TE23, S640A); assay: as above; assay type: cell-based; conditions: variant S640A^3.32; for Emax: read-out: maximal signal (% of wt)
T2 construct: expressed in transfected cells; host or cells: HEK293T cells stably expressing G16Gust44
T2 sequence (Q8TE23 20-839): T1 sequence (Q8TE23 20-839)
T2 sequence (Q7RTX0 21-852 S640A): T1 sequence (Q7RTX0 21-852 L782A) with S620A, A762L
Summary of the method: as §1

| EC50 [1] [µM] | Emax [1] [%] | EC50 [2] [µM] | Emax [2] [%] | SMILES |
| --- | --- | --- | --- | --- |
| > 3000 | 50 ± 11 | 800 ± 200 | 63 ± 18 | COc1ccc(CCC(=O)c2c(O)cc(O[C@@H]3O[C@H](CO)[C@@H](O)[C@H](O)[C@H]3O[C@@H]3O[C@@H](C)[C@H](O)[C@@H](O)[C@H]3O)cc2O)cc1O [NHDC, neohesperidin dihydrochalcone] |
| 1700 ± 300 | 95 ± 90 | 1400 ± 500 | 61 ± 40 | COC(=O)[C@H](Cc1ccccc1)NC(=O)[C@@H](N)CC(=O)O [aspartame] (HELM PEPTIDE1{D.F.[CO[*:1]]}$$$$V2.0) |

Source: article PMC2099433, “The binding site for neohesperidin dihydrochalcone at the human sweet taste receptor” (BMC Structural Biology, 2007)
